# Test results taken from US8993757B2, “N-piperidin-4-yl derivatives” (Merck Sharp & Dohme B.V., priority 2011, dated 2015).
# Target: T1, human FSH receptor (Homo sapiens, UniProt P23945)
# T1 construct: expressed in transfected cells; host or cells: CHO cells, cotransfected with a CRE/promotor firefly luciferase reporter
# T1 sequence (P23945 18-695): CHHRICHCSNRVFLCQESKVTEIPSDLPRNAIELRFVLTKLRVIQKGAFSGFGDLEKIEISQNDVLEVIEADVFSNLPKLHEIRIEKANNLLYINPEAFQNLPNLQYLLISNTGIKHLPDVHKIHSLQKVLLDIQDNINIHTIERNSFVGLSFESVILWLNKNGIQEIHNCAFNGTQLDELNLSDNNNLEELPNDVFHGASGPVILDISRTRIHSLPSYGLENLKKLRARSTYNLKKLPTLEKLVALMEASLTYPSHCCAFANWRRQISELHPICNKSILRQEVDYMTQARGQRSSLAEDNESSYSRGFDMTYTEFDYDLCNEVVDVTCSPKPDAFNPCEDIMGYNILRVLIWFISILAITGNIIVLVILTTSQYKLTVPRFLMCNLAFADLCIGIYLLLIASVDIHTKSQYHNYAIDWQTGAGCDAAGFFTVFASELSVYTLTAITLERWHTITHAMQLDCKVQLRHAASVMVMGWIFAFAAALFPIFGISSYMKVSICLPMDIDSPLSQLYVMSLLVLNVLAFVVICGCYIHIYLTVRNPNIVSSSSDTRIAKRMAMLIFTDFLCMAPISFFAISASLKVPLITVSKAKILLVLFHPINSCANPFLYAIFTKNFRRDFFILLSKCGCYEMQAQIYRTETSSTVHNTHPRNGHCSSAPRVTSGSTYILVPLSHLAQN
# Experiment: Antagonistic activity at the human FSH receptor expressed in CHO cells (CRE-luciferase reporter)
# Assay type: cell-based
# Conditions: CHO cells stably transfected with human FSH receptor and CRE/firefly luciferase reporter; 4 hours incubation; read-out: pIC50 (negative logarithm of the IC50 value) (converted)
# Experimental: The FSHR antagonists of the invention have pIC50 values higher than 6 in said assay. The preferred compounds of the invention have pIC50 values higher than 8.
# Antagonistic activity of the compounds at the human FSH receptor was determined in Chinese Hamster Ovary (CHO) cells stably transfected with the human FSH receptor and cotransfected with a cAMP responsive element (CRE)/promotor directing the expression of a firefly luciferase reporter gene. […] The cells (7,500 cells/well of a 384 well plate) were incubated in Dulbecco′ minimal essential F12 modified medium (Invitrogen), supplemented with 1 μg/ml bovine insulin, 5 μg/ml human apo-transferrin, 100 U/ml penicillin G and 100 μg/ml streptomycin with the test compounds (concentration between 0.316 nM and 10.0 μM) in duplicate together with […] (which, at this concentration in the absence of test compound, induces 80% of the maximal luciferase stimulation) in a humidified atmosphere (95%) at 5-7% CO2 and 37° C. The final concentration of DMSO was 1%. After 4 hours of incubation, plates were allowed to adjust to room temperature for 1 hour. Then, SteadyLite (Perkin Elmer) solution was added to the wells and cells were allowed to lyse for at least 1 hour at room temperature. Subsequently, luciferase activity was measured in a luminescence counter. The signal is expressed as counts per second (cps). The IC50 (concentration of test compound causing half-maximal (50%) inhibition of the maximally attainable inhibition of the luciferase stimulation by the compound) and efficacy of the compounds were determined using the software program MathIQ (version 2.3, ID Business Solutions Limited).
row,Structure (SMILES),IC50 [nM]
1,"COc1cc(OCC2CC2)cc(C(=O)NCC2CCN(c3ccnc(-c4cccc(-n5cccn5)c4)n3)CC2)c1 [Example 15A, N-((1-(2-(3-(1H-pyrazol-1-yl)phenyl)pyrimidin-4-yl)piperidin-4-yl)methyl)-3-(cyclopropylmethoxy)-5-methoxybenzamide]",< 10
2,"COc1cc(OCc2cc(C)on2)cc(C(=O)NCC2CCN(c3ccnc(-c4cccc(-n5cccn5)c4)n3)CC2)c1 [Example 15B, N-((1-(2-(3-(1H-pyrazol-1-yl)phenyl)pyrimidin-4-yl)piperidin-4-yl)methyl)-3-methoxy-5-((5-methylisoxazol-3-yl)methoxy)benzamide]",< 10
3,"COc1cc(OCCCO)cc(C(=O)NCC2CCN(c3ccnc(-c4cccc(-n5cccn5)c4)n3)CC2)c1 [Example 15C, N-((1-(2-(3-(1H-pyrazol-1-yl)phenyl)pyrimidin-4-yl)piperidin-4-yl)methyl)-3-(3-hydroxypropoxy)-5-methoxybenzamide]",10 to 100
4,"COCCOc1cc(OC)cc(C(=O)NCC2CCN(c3ccnc(-c4cccc(-n5cccn5)c4)n3)CC2)c1 [Example 15D, N-((1-(2-(3-(1H-pyrazol-1-yl)phenyl)pyrimidin-4-yl)piperidin-4-yl)methyl)-3-methoxy-5-(2-methoxyethoxy)benzamide]",10 to 100
5,"COc1cc(OCC2CC2)cc(C(=O)NCC2CCN(c3ncnc(-c4cccc(-n5cccn5)c4)n3)CC2)c1 [Example 17A, N-((1-(4-(3-(1H-pyrazol-1-yl)phenyl)-1,3,5-triazin-2-yl)piperidin-4-yl)methyl)-3-(cyclopropylmethoxy)-5-methoxybenzamide]",< 10
6,"COc1cc(OCC2CCOCC2)cc(C(=O)NCC2CCN(c3ncnc(-c4cccc(-n5cccn5)c4)n3)CC2)c1 [Example 17B, N-((1-(4-(3-(1H-pyrazol-1-yl)phenyl)-1,3,5-triazin-2-yl)piperidin-4-yl)methyl)-3-methoxy-5-((tetrahydro-2H-pyran-4-yl)methoxy)benzamide]",10 to 100
7,COc1cc(OCc2ccoc2)cc(C(=O)NCC2CCN(c3ncnc(-c4cccc(-n5cccn5)c4)n3)CC2)c1 [Example 17C],10 to 100
8,"CNC(=O)COc1cc(OC)cc(C(=O)NCC2CCN(c3ncnc(-c4cccc(-n5cccn5)c4)n3)CC2)c1 [Example 17D, N-((1-(4-(3-(1H-pyrazol-1-yl)phenyl)-1,3,5-triazin-2-yl)piperidin-4-yl)methyl)-3-methoxy-5-(2-(methylamino)-2-oxoethoxy)benzamide]",10 to 100
9,"COc1cc(OC)cc(C(=O)NCC2CCN(c3ccnc(-c4cccc(-c5ccn[nH]5)c4)n3)CC2)c1 [Example 18, N-((1-(2-(3-(1H-pyrazol-5-yl)phenyl)pyrimidin-4-yl)piperidin-4-yl)methyl)-3,5-dimethoxybenzamide]",10 to 100
10,"COc1cc(OCC2CC2)cc(C(=O)NCC2CCN(c3ccnc(-c4ccc5[nH]ncc5c4)n3)CC2)c1 [Example 19E, N-((1-(2-(1H-indazol-5-yl)pyrimidin-4-yl)piperidin-4-yl)methyl)-3-(cyclopropylmethoxy)-5-methoxybenzamide]",10 to 100
11,"COC(=O)c1cnc(-c2cccc(-n3cccn3)c2)nc1N1CCC(CNC(=O)c2cc(OC)cc(OC)c2)CC1 [Example 21B, methyl 2-(3-(1H-pyrazol-1-yl)phenyl)-4-(4-((3,5-dimethoxybenzamido)methyl)piperidin-1-yl)pyrimidine-5-carboxylate]",10 to 100
12,"COc1cc(OCCO)cc(C(=O)NCC2CCN(c3nc(-c4cccc(-c5cc[nH]n5)c4)ncc3F)CC2)c1 [Example 22, N-((1-(2-(3-(1H-pyrazol-3-yl)phenyl)-5-fluoropyrimidin-4-yl)piperidin-4-yl)methyl)-3-(2-hydroxyethoxy)-5-methoxybenzamide]",10 to 100
13,"C#CCOc1cc(OC)cc(C(=O)NCC2CCN(c3nc(-c4cccc(-c5cc[nH]n5)c4)ncc3F)CC2)c1 [Example 23C, N-((1-(2-(3-(1H-pyrazol-3-yl)phenyl)-5-fluoropyrimidin-4-yl)piperidin-4-yl)methyl)-3-methoxy-5-(prop-2-ynoxy)benzamide]",10 to 100
14,"COc1cc(OCC2CC2)cc(C(=O)NCC2CCN(c3nc(-c4cccc(-n5ccnn5)c4)ncc3F)CC2)c1 [Example 28C, N-((1-(2-(3-(1H-1,2,3-triazol-1-yl)phenyl)-5-fluoropyrimidin-4-yl)piperidin-4-yl)methyl)-3-(cyclopropylmethoxy)-5-methoxybenzamide]",10 to 100
15,"COc1cc(OCC(F)(F)F)cc(C(=O)NCC2CCN(c3ncnc(-c4cccc(C#N)c4)n3)CC2)c1 [Example 30D, N-((1-(4-(3-cyanophenyl)-1,3,5-triazin-2-yl)piperidin-4-yl)methyl)-3-methoxy-5-(2,2,2-trifluoroethoxy)benzamide]",< 10
16,"COc1cc(OCC2CC2)cc(C(=O)NCC2CCN(c3ccnc(-c4cccc(C(=O)NC(C)(C)C)c4)n3)CC2)c1 [Example 32F, N-((1-(2-(3-(tert-butylcarbamoyl)phenyl)pyrimidin-4-yl)piperidin-4-yl)methyl)-3-(cyclopropylmethoxy)-5-methoxybenzamide]",10 to 100

# Next, values leading:
row,IC50 [nM],Structure (SMILES)
1,10 to 100,"COc1cc(OCc2ccccc2)cc(C(=O)NCC2CCN(c3ccnc(-c4cccc(-n5cccn5)c4)n3)CC2)c1 [Example 11, N-((1-(2-(3-(1H-pyrazol-1-yl)phenyl)pyrimidin-4-yl)piperidin-4-yl)methyl)-3-(benzoxy)-5-methoxybenzamide]"
2,10 to 100,"COc1cc(OCc2ccccc2)cc(C(=O)NCC2CCN(c3ncnc(-c4cccc(-c5ccccn5)c4)n3)CC2)c1 [Example 12B, 3-(benzoxy)-5-methoxy-N-((1-(4-(3-(pyridin-2-yl)phenyl)-1,3,5-triazin-2-yl)piperidin-4-yl)methyl)benzamide]"
3,10 to 100,"COc1cc(OCc2ccc(F)cc2)cc(C(=O)NCC2CCN(c3ccnc(-c4cccc(-n5cccn5)c4)n3)CC2)c1 [Example 14, N-((1-(2-(3-(1H-pyrazol-1-yl)phenyl)pyrimidin-4-yl)piperidin-4-yl)methyl)-3-(4-fluorobenzoxy)-5-methoxybenzamide]"
4,10 to 100,"COc1cc(OCC2CC2)cc(C(=O)NCC2CCN(c3nc(-c4cccc(C#N)c4)ncc3F)CC2)c1 [Example 19B, N-((1-(2-(3-cyanophenyl)-5-fluoropyrimidin-4-yl)piperidin-4-yl)methyl)-3-(cyclopropylmethoxy)-5-methoxybenzamide]"
5,< 10,"COc1cc(OCC2CC2)cc(C(=O)NCC2CCN(c3nc(-c4cccc(-c5ccn[nH]5)c4)ncc3F)CC2)c1 [Example 19C, N-((1-(2-(3-(1H-pyrazol-5-yl)phenyl)-5-fluoropyrimidin-4-yl)piperidin-4-yl)methyl)-3-(cyclopropylmethoxy)-5-methoxybenzamide]"
6,10 to 100,"COCCCOc1cc(OC)cc(C(=O)NCC2CCN(c3nc(-c4cccc(-c5cc[nH]n5)c4)ncc3F)CC2)c1 [Example 23A, N-((1-(2-(3-(1H-pyrazol-3-yl)phenyl)-5-fluoropyrimidin-4-yl)piperidin-4-yl)methyl)-3-methoxy-5-(3-methoxypropoxy)benzamide]"
7,10 to 100,"COc1cc(OCC(F)(F)F)cc(C(=O)NCC2CCN(c3ncnc(-c4cccc(C#N)c4)n3)CC2)c1 [Example 30C, N-((1-(4-(3-cyanophenyl)-1,3,5-triazin-2-yl)piperidin-4-yl)methyl)-3-methoxy-5-(2,2,2-trifluoroethoxy)benzamide]"
8,< 10,"COc1cc(OCC2CC2)cc(C(=O)NCC2CCN(c3ccnc(-c4cccc(C(=O)Nc5ccn(C)n5)c4)n3)CC2)c1 [Example 32C, 3-(cyclopropylmethoxy)-5-methoxy-N-((1-(2-(3-(1-methyl-1H-pyrazol-3-ylcarbamoyl)phenyl)pyrimidin-4-yl)piperidin-4-yl)methyl)benzamide]"
9,10 to 100,"COc1cc(OCC2CC2)cc(C(=O)NCC2CCN(c3ncnc(-c4cccc(C(=O)NCC(F)F)c4)n3)CC2)c1 [Example 32G, 3-(cyclopropylmethoxy)-N-((1-(4-(3-(2,2-difluoroethylcarbamoyl)phenyl)-1,3,5-triazin-2-yl)piperidin-4-yl)methyl)-5-methoxybenzamide]"
